Source: paper PMC7226860 (ACS Omega, 2020)
In brackets after ≈: the same amount, converted by molar mass.

Legend:
E. coli (ATCC: 3008) [1] = assay: Agar well diffusion, inhibition zone; assay type: cell-based, Escherichia coli; settings: Escherichia coli, read-out: diameter of the inhibition zone
[2] = tested on: K. pneumonia (ATCC: 4415); assay: Agar well diffusion, inhibition zone; assay type: cell-based, Klebsiella pneumonia; settings: Klebsiella pneumoniae, read-out: diameter of the inhibition zone, K. pneumonia (ATCC: 4415), Gram (−ve), 15 mg/mL, mean ± SD
[3] = tested on: P. aeruginosa (ATCC: 27853); assay: Agar well diffusion, inhibition zone; assay type: cell-based, Pseudomonas aeruginosa; settings: for zone of inhibition at 15000 µg/mL: Pseudomonas aeruginosa, read-out: diameter of the inhibition zone; for diameter of the inhibition zone: P. aeruginosa (ATCC: 27853), Gram (−ve), agar well diffusion, 15 mg/mL, mean ± SD
S. aureus (ATCC: 6538) [4] = assay: Agar well diffusion, inhibition zone; assay type: cell-based, Staphylococcus aureus; settings: for zone of inhibition at 15000 µg/mL: Staphylococcus aureus, read-out: diameter of the inhibition zone
S. mutans (ATCC: 25175) [5] = assay: Agar well diffusion, inhibition zone; assay type: cell-based, Streptococcus mutans; settings: Streptococcus mutans, read-out: diameter of the inhibition zone
[6] = tested on: C. albicans (ATCC: 10231); assay: Agar well diffusion, inhibition zone; assay type: cell-based, Candida albicans; settings: for diameter of the inhibition zone: C. albicans (ATCC: 10231), fungi, 15 mg/mL, mean ± SD; for zone of inhibition at 15000 µg/mL: Candida albicans, read-out: diameter of the inhibition zone, C. albicans (ATCC: 10231), fungi, 15 mg/mL, mean ± SD
E. coli (ATCC: 3008) [7] = assay: MIC, twofold serial dilution; assay type: cell-based; settings: Escherichia coli, 24 h
[8] = tested on: K. pneumonia (ATCC: 4415); assay: MIC, twofold serial dilution; assay type: cell-based; settings: Klebsiella pneumoniae, 24 h, read after 24 h
[9] = tested on: P. aeruginosa (ATCC: 27853); assay: MIC, twofold serial dilution; assay type: cell-based; settings: Pseudomonas aeruginosa, 24 h
S. aureus (ATCC: 6538) [10] = assay: MIC, twofold serial dilution; assay type: cell-based; settings: Staphylococcus aureus, 24 h
S. mutans (ATCC: 25175) [11] = assay: MIC, twofold serial dilution; assay type: cell-based; settings: Streptococcus mutans, 24 h
[12] = tested on: HFB4 human dermal fibroblast cell line; assay: MTT cytotoxicity assay; assay type: cell-based; settings: 48 h
human DHFR = target: T1, human DHFR (Homo sapiens, UniProt P00374); assay: DHFR inhibitor screening kit; assay type: biochemical; settings: for inhibition at 0.01 µg/mL / inhibition at 0.1 µg/mL / inhibition at 1 µg/mL / inhibition at 10 µg/mL: read-out: Inhibition of DHFR enzyme
T1 sequence (P00374 1-187): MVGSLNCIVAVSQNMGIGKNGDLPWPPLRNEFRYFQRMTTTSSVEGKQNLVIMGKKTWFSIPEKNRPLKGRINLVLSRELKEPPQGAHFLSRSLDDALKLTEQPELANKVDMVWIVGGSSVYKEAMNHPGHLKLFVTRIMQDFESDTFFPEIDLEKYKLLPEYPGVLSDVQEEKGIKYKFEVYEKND

[13] = tested on: C. albicans (ATCC: 10231); assay: MIC, twofold serial dilution; assay type: cell-based, Candida albicans; settings: Candida albicans, 24 h

Structure (SMILES)	zone of inhibition at 15000 µg/mL (E. coli (ATCC: 3008) [1]) [mm]	zone of inhibition at 15000 µg/mL [2] [mm]	zone of inhibition at 15000 µg/mL [3] [mm]	zone of inhibition at 15000 µg/mL (S. aureus (ATCC: 6538) [4]) [mm]	zone of inhibition at 15000 µg/mL (S. mutans (ATCC: 25175) [5]) [mm]	diameter of the inhibition zone [6]	MIC (E. coli (ATCC: 3008) [7]) [mg/L]	MIC [8] [mg/L]	MIC [9] [mg/L]	MIC (S. aureus (ATCC: 6538) [10]) [mg/L]	MIC (S. mutans (ATCC: 25175) [11]) [mg/L]	IC50 [12] [mg/L]	IC50 (human DHFR) [µM]	inhibition at 0.01 µg/mL (human DHFR) [%]	inhibition at 0.1 µg/mL (human DHFR) [%]	inhibition at 1 µg/mL (human DHFR) [%]	inhibition at 10 µg/mL (human DHFR) [%]	diameter of the inhibition zone [3]	zone of inhibition at 15000 µg/mL [6] [mm]	MIC [13] [mg/L]	also measured
CSc1c(C#N)c(N)n(NS(=O)(=O)c2ccc(C)cc2)c(=O)c1-c1nc2ccccc2s1 [compound 5b, N-(6-Amino-3-(benzo[d]thiazol-2-yl)-5-cyano-4-(methylthio)-2-oxopyridin-1(2H)-yl)-4-methylbenzenesulfonamide]	21.3 ± 3	25.6 ± 1.1	23.3 ± 0.5	30.3 ± 0.5	18.6 ± 1	−	125 (≈ 258 µM)	1000 (≈ 2070 µM)	1000 (≈ 2070 µM)	250 (≈ 517 µM)	1000 (≈ 2070 µM)	146 ± 27 (≈ 301 µM)	0.62	19.8	37.4	65	79.4				
CNC(C)C1CCC(N)C(OC2C(N)CC(N)C(OC3OCC(C)(O)C(NC)C3O)C2O)O1 (stereo not shown) [Gentamicin, reference compound]	25 ± 0.1	32 ± 0.1	35 ± 0.1				31.2 (≈ 65.4 µM)	62.5 (≈ 131 µM)	125 (≈ 262 µM)												
Nc1n[nH]c2c(-c3nc4ccccc4s3)c(=O)n(NS(=O)(=O)c3ccccc3)c(N)c12 [compound 11a, N-(3,4-Diamino-7-(benzo[d]thiazol-2-yl)-6-oxo-1H-pyrazolo[4,3-c]pyridin-5(6H)-yl)benzenesulfonamide]	26 ± 0.5	15.2 ± 0.5		35.2 ± 1.5	22.3 ± 0.5	21.0 ± 1.7 mm	31.2 (≈ 68.9 µM)	125 (≈ 276 µM)		31.2 (≈ 68.9 µM)	1000 (≈ 2210 µM)	234 ± 20.7 (≈ 515 µM)	0.441	29.6	44.1	67	71.8	−	21 to 28	125 (≈ 276 µM)	
CSc1c(C#N)c(N)n(NS(=O)(=O)c2ccccc2)c(=O)c1-c1nc2ccccc2s1 [compound 5a, N-(6-Amino-3-(benzo[d]thiazol-2-yl)-5-cyano-4-(methylthio)-2-oxopyridin-1(2H)-yl)benzenesulfonamide]	26 ± 0.5	20.6 ± 1			17.6 ± 1.5	21.0 ± 1.0 mm	62.5 (≈ 133 µM)	1000 (≈ 2130 µM)			1000 (≈ 2130 µM)	167 ± 21.8 (≈ 356 µM)	0.554	30	41.8	57.3	75.9	−	21 to 28	62.5 (≈ 133 µM)	diameter of the inhibition zone (S. aureus (ATCC: 6538) [4]; S. aureus (ATCC: 6538), Gram (+ve), agar well diffusion, 15 mg/mL, mean ± SD): −
Nc1ccc(S(=O)(=O)Nc2ncccn2)cc1 [SD, sulfadiazine, reference compound]	19.8 ± 0.4	20.4 ± 0.9	24 ± 1.4	31.2 ± 2.1	16.3 ± 1.1	no activity	250 (≈ 999 µM)	250 (≈ 999 µM)	250 (≈ 999 µM)	500 (≈ 2000 µM)	125 (≈ 499 µM)	243 ± 46.1 (≈ 969 µM)									
